US20100104628A1, “METHOD OF TREATING NEUROBLASTOMA” (priority 2007, published 2010)
Like-named read-outs stand apart in the source and are kept apart here.

Columns and labels:
SK-N-BE(2c) (NET ++++) = assay: cells; format: cell-based
MCF7 (NET 0) = assay: in vitro; format: cell-based, human
SK—N-BE(2c) (high NET) = assay: Glutathione depletion in vitro, SK-N-BE(2c); format: cell-based
Procedure: The NB cell line SK—N-BE(2c) (high net) was treated with MIBG, MIBG-disulfide dimer (MIGB-S—S-MIBG), chloromethyl-MIBG (cmMIBG), and BSO. For comparison, the human breast cancer line MCF7 (no NET) was treated with chloromethyl-MIBG and BSO. At specific times, intracellular glutathione in drug-treated cells was determined relative to that in untreated cells (control).
SK—N-BE(2c) (high NET) cells were treated with a single concentration of chloromethyl-MIBG (25 μM at t=0). Glutathione concentrations in treated and untreated cells were measured at t=0.5, 1, 2, 3 and 4 hrs. Glutathione levels in drug-treated cells progressively fell, with a concentration 50% that of control at t 4 hrs (FIG. 10B).
Cells were exposed to 5 μM chloromethyl-MIBG (cmMIBG), 25 μM BSO and a combination of 5 μM chloromethyl-MIBG+25 μM BSO (both) for 7 hrs. Compared to controls, chloromethyl-MIBG alone depleted glutathione by about 30% in SK—N—Be(2c) cells and 8% in MCF7. BSO, as expected, depleted MCF7 and SK—N—Be(2c) by similar amounts (42 and 54% of controls, respectively). In combination studies, chloromethyl-MIBG+BSO depleted levels by about 85% in the SK—N—Be(2c) cells and had much less effect on the MCF7 cells with glutathione reduced by 49% relative to controls.

[1] = (101×C3H)F1 male mice, cited from earlier work
SK-N-SH (NET ++) = assay: Cytotoxicity, MTT assay, SK-N-SH; format: cell-based; conditions: Homo sapiens, SK-N-SH
in vitro = format: cell-based, human; conditions: human; for IC50 at 24 h: 24 hr assay
NET = biological target: T1, NET (Homo sapiens, UniProt P23975); assay: NET competitive binding assay ([125I]MIBG displacement, SK-N-SH cells); conditions: 5 μM test compound, 2 hr incubation
T1 construct: endogenous in cells; host or cells: SK-N-SH neuroblastoma cells
T1 sequence (P23975 whole entry): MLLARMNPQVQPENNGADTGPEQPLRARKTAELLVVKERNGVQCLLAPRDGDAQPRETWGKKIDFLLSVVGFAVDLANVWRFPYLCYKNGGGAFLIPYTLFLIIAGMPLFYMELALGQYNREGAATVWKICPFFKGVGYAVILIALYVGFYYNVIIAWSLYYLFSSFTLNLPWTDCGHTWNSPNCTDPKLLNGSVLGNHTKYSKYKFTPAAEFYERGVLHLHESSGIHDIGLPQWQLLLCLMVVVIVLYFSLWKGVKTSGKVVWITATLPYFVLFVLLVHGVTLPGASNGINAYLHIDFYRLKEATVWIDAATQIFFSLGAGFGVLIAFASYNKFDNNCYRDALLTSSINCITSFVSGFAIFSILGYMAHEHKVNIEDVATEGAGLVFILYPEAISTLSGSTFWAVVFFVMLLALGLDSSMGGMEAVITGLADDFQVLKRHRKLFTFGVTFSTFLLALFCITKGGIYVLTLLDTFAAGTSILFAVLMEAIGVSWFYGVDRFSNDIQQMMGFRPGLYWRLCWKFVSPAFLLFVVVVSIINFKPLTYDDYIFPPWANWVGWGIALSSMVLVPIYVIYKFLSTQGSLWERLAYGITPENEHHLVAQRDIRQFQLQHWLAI
Procedure: An assay to assess binding of various MIBG-analogs to the NET was performed by published methods (Vaidynathan et al, Nucl. Med. Commun. 25:947-955 (2004), Vaidynathan et al, Bioorg. Med. Chem. 12:1649-1656 (2004), Vaidynathan et al, Bioconjugate Chem. 12:798-806 (2001), Vaidynathan et al, Eur. J. Nucl. Med. Mol. Imaging 31:1362-1370 (2004)). In brief, neuroblastoma SK—N—SH cells (moderate levels of NET) were treated with [^125I]MIBG and with increasing concentrations of unlabeled MIBG or MIBG-analogs. At the end of a 2 hr incubation and appropriate work-up, the cell-bound radioactivity was counted. Total cell-bound radioactivity minus non-specific cell-bound radioactivity gave a value for specific binding which was plotted in FIG. 9 against the concentration of test compounds. At 5 μM, cold MIBG displaced “100%” of the labeled-MIBG (i.e., “zero” cell-bound radioactivity). At 5 μM, chloromethyl-MIBG displaced 83%; the disulfide MIBG-SS-ethyl and the ester MIBG-phenylbutyrate displaced 50-55%; and hydroxymethyl-MIBG displaced 27%.

[2] = 48 hr assay (24 h exposure + 24 h recovery), Table 3, read-out: Cytotoxicity IC50
[3] = single agent, 1% DMSO, read-out: Cytotoxicity IC50

Question: For `N=C(N)NCc1ccc(CSC[C@H](NC(=O)CC[C@H](N)C(=O)O)C(=O)NCC(=O)O)c(I)c1` [MIBG-S-Glutathione], which IC50 (SK-N-BE(2c) (NET ++++)) is on record?
Answer: 390 µM

Question: And the IC50 (MCF7 (NET 0))?
Answer: > 1000 µM

Question: Which IC50 (SK-N-BE(2c) (NET ++++); [2]) does the source give for `CCSSCc1ccc(CNC(=N)N)cc1I` [MIBG-SS-ethyl] here?
Answer: 27.4 ± 4.09 µM

Question: And the IC50 (MCF7 (NET 0); [2])?
Answer: 24.2 ± 7.21 µM

Question: Which “effect on glutathione levels” value (SK—N-BE(2c) (high NET); 5 μM) does the source give for `N=C(N)NCc1ccc(CSSCc2ccc(CNC(=N)N)cc2I)c(I)c1` [MIBG-disulfide dimer] here?
Answer: a transient loss of glutathione was observed

Question: And the “time for glutathione to return to pre-treatment levels” value (SK—N-BE(2c) (high NET); 5 μM)?
Answer: ≤ 8 h

Question: What about the “effect on glutathione levels and cell viability” value (SK—N-BE(2c) (high NET); higher concentrations (25 and 100 microM), up to 8 hrs) of the same compound?
Answer: extensive loss of glutathione and cell viability with no recovery

Question: With `N[C@@H](Cc1ccc(N(CCCl)CCCl)cc1)C(=O)O` [Melphalan] as the compound, how does the death rate ([1]; 20 mg/kg single injection i.p., by one week) read?
Answer: 100%

Question: What about the MTD ([1]; single injection, i.p.) of the same compound?
Answer: 10 to 15 mg/kg

Question: And the IC50 (SK-N-BE(2c) (NET ++++); SK-N-BE(2)-C, 24 h, read-out: Cytotoxicity IC50, 24 hr assay, single agent, 1% DMSO)?
Answer: 36.2 ± 5.2 µM

Question: What about the IC50 (SK-N-BE(2c) (NET ++++); SK-N-BE(2)-C, 24 h, read-out: Cytotoxicity IC50 of melphalan, 24 hr assay, + 5 μM MIBG) of the same compound?
Answer: 43.5 ± 7 µM

Question: And the IC50 (SK-N-BE(2c) (NET ++++); SK-N-BE(2)-C, 24 h, read-out: Cytotoxicity IC50 of melphalan, 24 hr assay, + 5 μM cmMIBG (Table 2D))?
Answer: 11.3 ± 5.4 µM

Question: And the IC50 (SK-N-BE(2c) (NET ++++); SK-N-BE(2)-C, 24 h, read-out: Cytotoxicity IC50 of melphalan, competition experiment, 24 hr assay, + 5 μM cmMIBG + 5 μM MIBG)?
Answer: 22.9 µM

Question: And the IC50 (SK-N-BE(2c) (NET ++++); SK-N-BE(2)-C, 24 h, read-out: Cytotoxicity IC50 of melphalan, competition experiment, 24 hr assay, + 5 μM cmMIBG plus vehicle (no MIBG))?
Answer: 8.1 µM

Question: And the IC50 (SK-N-BE(2c) (NET ++++); SK-N-BE(2)-C, 48 h, read-out: Cytotoxicity IC50, 48 hr assay, single agent, Table 4)?
Answer: 25.8 ± 3.5 µM

Question: And the IC50 (SK-N-BE(2c) (NET ++++); SK-N-BE(2)-C, 48 h, read-out: Cytotoxicity IC50 of melphalan, 48 hr assay, + 1 μM cmMIBG added at same time)?
Answer: 13.9 ± 4.7 µM

Question: What about the IC50 (SK-N-BE(2c) (NET ++++); SK-N-BE(2)-C, 48 h, read-out: Cytotoxicity IC50 of melphalan, 48 hr assay, + 5 μM cmMIBG added at same time) of the same compound?
Answer: 7.3 ± 1.3 µM

Question: What about the IC50 (SK-N-BE(2c) (NET ++++); SK-N-BE(2)-C, read-out: Cytotoxicity IC50, 48 hr assay (24 h exposure + 24 h recovery), Table 3) of the same compound?
Answer: 25.8 ± 3.54 µM

Question: And the IC50 (SK-N-BE(2c) (NET ++++); SK-N-BE(2)-C, read-out: Cytotoxicity IC50 of melphalan, 48 hr assay, cells treated with 1 μM cmMIBG for 3 hrs, then melphalan added)?
Answer: 14 ± 3.7 µM

Question: And the IC50 (SK-N-BE(2c) (NET ++++); SK-N-BE(2)-C, read-out: Cytotoxicity IC50 of melphalan, 48 hr assay, cells treated with 5 μM cmMIBG for 3 hrs, then melphalan added)?
Answer: 10.2 ± 0.9 µM

Question: And the IC50 (SK-N-SH (NET ++); 48 h, read-out: Cytotoxicity IC50, 48 hr assay, single agent, Table 4)?
Answer: 54.1 ± 13.8 µM

Question: And the IC50 (SK-N-SH (NET ++); 48 h, read-out: Cytotoxicity IC50 of melphalan, 48 hr assay, + 1 μM cmMIBG added at same time)?
Answer: 36.7 ± 18.7 µM

Question: What about the IC50 (SK-N-SH (NET ++); 48 h, read-out: Cytotoxicity IC50 of melphalan, 48 hr assay, + 5 μM cmMIBG added at same time) of the same compound?
Answer: 29.9 ± 10.6 µM

Question: And the IC50 (SK-N-SH (NET ++); read-out: Cytotoxicity IC50, 48 hr assay (24 h exposure + 24 h recovery), Table 3)?
Answer: 54.1 ± 13.8 µM

Question: What about the IC50 (SK-N-SH (NET ++); read-out: Cytotoxicity IC50 of melphalan, 48 hr assay, cells treated with 1 μM cmMIBG for 3 hrs, then melphalan added) of the same compound?
Answer: 29.8 ± 4.8 µM

Question: And the IC50 (SK-N-SH (NET ++); read-out: Cytotoxicity IC50 of melphalan, 48 hr assay, cells treated with 5 μM cmMIBG for 3 hrs, then melphalan added)?
Answer: 38.4 ± 7.7 µM

Question: And the IC50 at 24 h (in vitro; + 5 μM MIBG, read-out: Cytotoxicity IC50 of melphalan)?
Answer: 386 ± 181 µM

Question: What about the IC50 at 24 h (in vitro; + 5 μM cmMIBG (Table 2D), read-out: Cytotoxicity IC50 of melphalan) of the same compound?
Answer: 276 ± 28 µM

Question: And the IC50 at 24 h (in vitro; [3])?
Answer: 250 ± 112 µM

Question: And the IC50 at 48 h (in vitro; [2])?
Answer: 126 ± 28 µM

Question: What about the IC50 at 48 h (in vitro; 48 hr assay, + 1 μM cmMIBG added at same time, read-out: Cytotoxicity IC50 of melphalan) of the same compound?
Answer: 127 ± 17 µM

Question: And the IC50 at 48 h (in vitro; 48 hr assay, + 5 μM cmMIBG added at same time, read-out: Cytotoxicity IC50 of melphalan)?
Answer: 75 ± 25 µM

Question: What about the IC50 at 48 h (in vitro; 48 hr assay, cells treated with 1 μM cmMIBG for 3 hrs, then melphalan added, read-out: Cytotoxicity IC50 of melphalan) of the same compound?
Answer: 60 ± 7 µM

Question: And the IC50 at 48 h (in vitro; 48 hr assay, cells treated with 5 μM cmMIBG for 3 hrs, then melphalan added, read-out: Cytotoxicity IC50 of melphalan)?
Answer: 43 ± 11 µM

Question: And the IC50 at 48 h (in vitro; 48 hr assay, single agent, Table 4, read-out: Cytotoxicity IC50)?
Answer: 126 ± 28 µM

Question: With `ClCc1ccccc1` [chloromethyl-benzene, benzylchloride] as the compound, how does the IC50 (SK-N-BE(2c) (NET ++++); 24 hr assay, single agent, 1% DMSO, read-out: Cytotoxicity IC50) read?
Answer: 172 ± 31 µM

Question: And the IC50 at 24 h (in vitro; [3])?
Answer: 390 ± 77 µM

Question: With `N=C(N)NCc1ccc(CO)c(I)c1` [hydroxymethyl-MIBG] as the compound, how does the “displacement of [125I]MIBG (specific cell-bound radioactivity)” value (NET) read?
Answer: 27%
